Assay results from patent US20260284208A1, “SYSTEM” (Oxford University Innovation Limited, priority 2023, published 2026).

Test system: library of 8,380 IKZF3 degrons (ZF-eGFP/mCherry reporter) in Jurkat cells
Assay: Pooled library screen (FACS, NGS, limma voom LogFC of positive vs negative read counts)
Assay type: cell-based, human
Protocol: A library of 8,380 IKZF3 degrons was cloned into pLVX-Sprout to create the eGFP/mCherry protein degradation reporter plasmid pool. A lentivirus pool was then generated using the Lenti-X lentiviral vector production method.
Jurkat cells were transduced at a multiplicity of infection of <0.3 with the lentivirus vector library in order to maximise the number of cells with a single integration. Transductions were carried out in 6 well TC-treated cell culture dishes (Falcon) with 3×10^6 cells per well. Cells were incubated for 2 days at 37° C. and 5% CO2 before the supernatant was removed and replaced with fresh media. 6 days post-transduction, mCherry+ cells were isolated via FACS using the FACS Aria Fusion (BD) in a buffer containing PBS (Gibco), 2 mM EDTA (Gibco), 25 mM HEPES (Sigma) and 1% BSA (Sigma). 8 days later, cells were treated with DMSO or a thalidomide analog for 18 hours at 37° C. and 5% CO2. mCherry+GFPlow and NOT(mCherry+GFPlow) cells were sorted by FACS using the FACS Aria Fusion (BD). DMSO treated cells were used to set the mCherry+GFPlow gate and dead cells were excluded from sorting by staining cells with 1 μg/mL DAPI (ThermoFisher). gDNA was isolated using the Maxwell RSC 48 (Promega). gDNA from cells that were unsorted and untreated were also isolated to determine the library representation on the day of compound treatment. Throughout the screen >600× coverage of the library was maintained. 3 biological replicates were carried out with a new transduction taking place each time.
A two-step PCR was used where the first PCR (PCR1) amplified the integrated degron sequence from gDNA and the second PCR (PCR2) added Illumina adaptors and barcodes to permit multiplexing. See Supp F for PCR1 and PCR2 primers. Q5 Hot Start High-Fidelity 2× Master Mix (New England Biolabs) was used for both PCRs. Sufficient gDNA was amplified in PCR1 in order to maintain >600× coverage and amplicons were purified using solid phase reversible immobilization (SPRI) beads (Beckman Coulter). Purified PCR1 products were analysed on the Tapestation 4200 (Agilent) to confirm purity prior to proceeding to PCR2. Sufficient PCR1 product was amplified in PCR2 in order to maintain >600× coverage and amplicons were run on a 2% agarose TAE gel. Target bands were excised and purified using the NucleoSpin Gel and PCR Clean-up Kit (Machery Nagel). Amplicons were analysed on the Tapestation 4200 and quantified using Qubit dsDNA HS kit (ThermoFisher). PCR products were pooled and sequenced as paired-reads on the NovaSeq (Illumina) using a SP2 200 cycles kit (Illumina).
Count distributions, percentage of read mapping, library coverage and replicate correlation per sample were assessed for QC purposes.
To carry out the library screen, we used the same plasmid construct as in our earlier flow cytometry assays, but pooling all 8,380 mutants together into one Jurkat population, ensuring a copy number of one plasmid per cell (FIG. 4B). […] These GFP-negative cells were then separated from the remaining GFP-positive population using fluorescence activated cell sorting (FACS). These two populations were then sequenced and the relative abundance of every mutant in both populations compared to provide a log FC value for each mutant sequence. This value indicated how frequently a sequence is observed in the GFP-negative population relative to the GFP-positive population, and therefore how effective a degron it is for that particular IMID compound.

O=C1CCC(N2C(=O)c3ccc(N4CCOCC4)cc3C2=O)C(=O)N1 (centres unmarked) [B03]
B03_logFC (Degron-ID 115, SEQ ID NO 3968, 46F_47A_49E_50V_52G_53A_54S_55F_67L): 2.732 | B03_logFC (Degron-ID 120, SEQ ID NO 4031, 46F_47A_49N_50I_52G_53A_54A_55F_67L): 2.638 | B03_logFC (Degron-ID 315, SEQ ID NO 3989, 46F_47C_49E_50I_52G_53A_54S_55F_67L): 2.703 | B03_logFC (Degron-ID 372, SEQ ID NO 3966, 46F_47C_49N_50I_52G_53A_54P_55F_67L): 2.733 | B03_logFC (Degron-ID 433, SEQ ID NO 4021, 46F_47C_49P_50I_52G_53A_54Q_55F_67L): 2.656 | B03_logFC (Degron-ID 434, SEQ ID NO 3957, 46F_47C_49P_50I_52G_53A_54R_55F_67L): 2.746 | B03_logFC (Degron-ID 435, SEQ ID NO 3984, 46F_47C_49P_50I_52G_53A_54S_55F_67L): 2.71 | B03_logFC (Degron-ID 977, SEQ ID NO 4017, 46F_47F_49D_50I_52G_53A_54V_55F_67L): 2.662 | B03_logFC (Degron-ID 1011, SEQ ID NO 3988, 46F_47F_49D_50V_52G_53A_54N_55F_67L): 2.704 | B03_logFC (Degron-ID 1015, SEQ ID NO 3971, 46F_47F_49D_50V_52G_53A_54S_55F_67L): 2.728 | B03_logFC (Degron-ID 1065, SEQ ID NO 3981, 46F_47F_49E_50V_52G_53A_54G_55F_67L): 2.716 | B03_logFC (Degron-ID 1080, SEQ ID NO 4003, 46F_47F_49N_50I_52G_53A_54A_55F_67L): 2.68 | B03_logFC (Degron-ID 1081, SEQ ID NO 4001, 46F_47F_49N_50I_52G_53A_54C_55F_67L): 2.686 | B03_logFC (Degron-ID 1097, SEQ ID NO 3956, 46F_47F_49N_50I_52G_53A_54V_55F_67L): 2.747 | B03_logFC (Degron-ID 1183, SEQ ID NO 4013, 46F_47F_49P_50V_52G_53A_54E_55F_67L): 2.668 | B03_logFC (Degron-ID 1188, SEQ ID NO 4025, 46F_47F_49P_50V_52G_53A_54K_55F_67L): 2.644 | B03_logFC (Degron-ID 1197, SEQ ID NO 3982, 46F_47F_49P_50V_52G_53A_54V_55F_67L): 2.716 | B03_logFC (Degron-ID 1267, SEQ ID NO 3977, 46F_47G_49E_50I_52G_53A_54I_55F_67L): 2.719 | B03_logFC (Degron-ID 1273, SEQ ID NO 4024, 46F_47G_49E_50I_52G_53A_54Q_55F_67L): 2.644 | B03_logFC (Degron-ID 1314, SEQ ID NO 3964, 46F_47G_49E_50V_52G_53A_54R_55F_67L): 2.737 | B03_logFC (Degron-ID 1393, SEQ ID NO 4023, 46F_47G_49P_50I_52G_53A_54Q_55F_67L): 2.648 | B03_logFC (Degron-ID 1433, SEQ ID NO 4022, 46F_47G_49P_50V_52G_53A_54Q_55F_67L): 2.653 | B03_logFC (Degron-ID 1513, SEQ ID NO 4030, 46F_47H_49E_50I_52G_53A_54Q_55F_67L): 2.639 | B03_logFC (Degron-ID 1515, SEQ ID NO 4006, 46F_47H_49E_50I_52G_53A_54S_55F_67L): 2.675 | B03_logFC (Degron-ID 1555, SEQ ID NO 4029, 46F_47H_49E_50V_52G_53A_54S_55F_67L): 2.639 | B03_logFC (Degron-ID 1621, SEQ ID NO 4027, 46F_47H_49P_50I_52G_53A_54C_55F_67L): 2.643 | B03_logFC (Degron-ID 1751, SEQ ID NO 3952, 46F_47I_49E_50I_52G_53A_54N_55F_67L): 2.753 | B03_logFC (Degron-ID 1754, SEQ ID NO 4020, 46F_47I_49E_50I_52G_53A_54R_55F_67L): 2.656 | B03_logFC (Degron-ID 1755, SEQ ID NO 3970, 46F_47I_49E_50I_52G_53A_54S_55F_67L): 2.728 | B03_logFC (Degron-ID 1785, SEQ ID NO 4016, 46F_47I_49E_50V_52G_53A_54G_55F_67L): 2.664 | B03_logFC (Degron-ID 1865, SEQ ID NO 4014, 46F_47I_49P_50I_52G_53A_54G_55F_67L): 2.667 | B03_logFC (Degron-ID 1871, SEQ ID NO 3960, 46F_47I_49P_50I_52G_53A_54N_55F_67L): 2.742 | B03_logFC (Degron-ID 1913, SEQ ID NO 3962, 46F_47I_49P_50V_52G_53A_54Q_55F_67L): 2.739 | B03_logFC (Degron-ID 1915, SEQ ID NO 3965, 46F_47I_49P_50V_52G_53A_54S_55F_67L): 2.736 | B03_logFC (Degron-ID 2392, SEQ ID NO 4011, 46F_47L_49P_50V_52G_53A_54P_55F_67L): 2.671 | B03_logFC (Degron-ID 2957, SEQ ID NO 3986, 46F_47Q_49E_50I_52G_53A_54V_55F_67L): 2.708 | B03_logFC (Degron-ID 2981, SEQ ID NO 4000, 46F_47Q_49E_50V_52G_53A_54C_55F_67L): 2.687 | B03_logFC (Degron-ID 2996, SEQ ID NO 4026, 46F_47Q_49E_50V_52G_53A_54T_55F_67L): 2.643 | B03_logFC (Degron-ID 2997, SEQ ID NO 3951, 46F_47Q_49E_50V_52G_53A_54V_55F_67L): 2.756 | B03_logFC (Degron-ID 3073, SEQ ID NO 3979, 46F_47Q_49P_50I_52G_53A_54Q_55F_67L): 2.718 | B03_logFC (Degron-ID 3076, SEQ ID NO 3959, 46F_47Q_49P_50I_52G_53A_54T_55F_67L): 2.742 | B03_logFC (Degron-ID 3115, SEQ ID NO 3978, 46F_47Q_49P_50V_52G_53A_54S_55F_67L): 2.718 | B03_logFC (Degron-ID 3432, SEQ ID NO 3998, 46F_47S_49E_50I_52G_53A_54P_55F_67L): 2.688 | B03_logFC (Degron-ID 3540, SEQ ID NO 3999, 46F_47S_49P_50I_52G_53A_54A_55F_67L): 2.688 | B03_logFC (Degron-ID 3791, SEQ ID NO 4035, 46F_47T_49P_50I_52G_53A_54N_55F_67L): 2.632 | B03_logFC (Degron-ID 3833, SEQ ID NO 4034, 46F_47T_49P_50V_52G_53A_54Q_55F_67L): 2.635 | B03_logFC (Degron-ID 3835, SEQ ID NO 3974, 46F_47T_49P_50V_52G_53A_54S_55F_67L): 2.722 | B03_logFC (Degron-ID 3953, SEQ ID NO 3961, 46F_47V_49E_50V_52G_53A_54Q_55F_67L): 2.742 | B03_logFC (Degron-ID 4065, SEQ ID NO 4015, 46F_47V_49P_50V_52G_53A_54G_55F_67L): 2.665 | B03_logFC (Degron-ID 4087, SEQ ID NO 3963, 46F_47W_49D_50I_52G_53A_54I_55F_67L): 2.738
